# Tests used:
# [1] = system: primary cortical neurons; experiment: Measurement of neurite outgrowth in primary cortical neurons; type: cell-based, mouse; settings: 5 μM Yoda1, imaging over 150 hours, versus vehicle
# Method: Measurement of neurite outgrowth in primary cortical neurons. Primary cortical neuron cultures were prepared from mouse embryos of embryonic day 15. The cortices were dissected, and tissue dissociated with 0.0125% trypsin (for 15 min at 37° C., Sigma-Aldrich, St. Louis, Mo., USA). After trypsin inactivation and washing the cells were counted and plated on 48-well-plates (coated with poly-D-lysine, Sigma-Aldrich, St. Louis, Mo., USA) at a density of 125 000 cells/well or on 6-well-plates at a density of 1.8 million cells/well in Neurobasal media supplemented with 2% B27 and 500 μM L-glutamine (all ThermoFisher Scientific, Waltham, Mass., USA) and 10 μg/ml of gentamicin (Sigma Aldrich, St. Louis, Mo., USA). On day 3 or 5 in vitro (DIV) the neurons were fed by changing 50% of media. The neurons were placed in IncuCyte® S3 Live Cell Analysis System (Essen
# BioScience Ltd., Hertfordshire, UK) on DIV 0 and treated with 5 μM Yoda1 (Tocris, Bio-Techne Ltd., Abingdon, Oxfordshire, UK) once on DIV 0 or daily until DIV 7, and images were taken every 8 hours for the analysis of neurite length and branch points.
# [2] = target: T1, native Piezo1Rs (Homo sapiens, UniProt Q92508); experiment: Calcium imaging of Yoda1-evoked Ca2+ influx in hiPSC-derived microglia; type: cell-based; settings: 50 μM Yoda1, control hiPSC microglia pre-incubated 15 min in BS, n=6
# T1 construct: endogenous in cells; host or cells: human iPSC-derived microglia
# T1 sequence (Q92508 whole entry): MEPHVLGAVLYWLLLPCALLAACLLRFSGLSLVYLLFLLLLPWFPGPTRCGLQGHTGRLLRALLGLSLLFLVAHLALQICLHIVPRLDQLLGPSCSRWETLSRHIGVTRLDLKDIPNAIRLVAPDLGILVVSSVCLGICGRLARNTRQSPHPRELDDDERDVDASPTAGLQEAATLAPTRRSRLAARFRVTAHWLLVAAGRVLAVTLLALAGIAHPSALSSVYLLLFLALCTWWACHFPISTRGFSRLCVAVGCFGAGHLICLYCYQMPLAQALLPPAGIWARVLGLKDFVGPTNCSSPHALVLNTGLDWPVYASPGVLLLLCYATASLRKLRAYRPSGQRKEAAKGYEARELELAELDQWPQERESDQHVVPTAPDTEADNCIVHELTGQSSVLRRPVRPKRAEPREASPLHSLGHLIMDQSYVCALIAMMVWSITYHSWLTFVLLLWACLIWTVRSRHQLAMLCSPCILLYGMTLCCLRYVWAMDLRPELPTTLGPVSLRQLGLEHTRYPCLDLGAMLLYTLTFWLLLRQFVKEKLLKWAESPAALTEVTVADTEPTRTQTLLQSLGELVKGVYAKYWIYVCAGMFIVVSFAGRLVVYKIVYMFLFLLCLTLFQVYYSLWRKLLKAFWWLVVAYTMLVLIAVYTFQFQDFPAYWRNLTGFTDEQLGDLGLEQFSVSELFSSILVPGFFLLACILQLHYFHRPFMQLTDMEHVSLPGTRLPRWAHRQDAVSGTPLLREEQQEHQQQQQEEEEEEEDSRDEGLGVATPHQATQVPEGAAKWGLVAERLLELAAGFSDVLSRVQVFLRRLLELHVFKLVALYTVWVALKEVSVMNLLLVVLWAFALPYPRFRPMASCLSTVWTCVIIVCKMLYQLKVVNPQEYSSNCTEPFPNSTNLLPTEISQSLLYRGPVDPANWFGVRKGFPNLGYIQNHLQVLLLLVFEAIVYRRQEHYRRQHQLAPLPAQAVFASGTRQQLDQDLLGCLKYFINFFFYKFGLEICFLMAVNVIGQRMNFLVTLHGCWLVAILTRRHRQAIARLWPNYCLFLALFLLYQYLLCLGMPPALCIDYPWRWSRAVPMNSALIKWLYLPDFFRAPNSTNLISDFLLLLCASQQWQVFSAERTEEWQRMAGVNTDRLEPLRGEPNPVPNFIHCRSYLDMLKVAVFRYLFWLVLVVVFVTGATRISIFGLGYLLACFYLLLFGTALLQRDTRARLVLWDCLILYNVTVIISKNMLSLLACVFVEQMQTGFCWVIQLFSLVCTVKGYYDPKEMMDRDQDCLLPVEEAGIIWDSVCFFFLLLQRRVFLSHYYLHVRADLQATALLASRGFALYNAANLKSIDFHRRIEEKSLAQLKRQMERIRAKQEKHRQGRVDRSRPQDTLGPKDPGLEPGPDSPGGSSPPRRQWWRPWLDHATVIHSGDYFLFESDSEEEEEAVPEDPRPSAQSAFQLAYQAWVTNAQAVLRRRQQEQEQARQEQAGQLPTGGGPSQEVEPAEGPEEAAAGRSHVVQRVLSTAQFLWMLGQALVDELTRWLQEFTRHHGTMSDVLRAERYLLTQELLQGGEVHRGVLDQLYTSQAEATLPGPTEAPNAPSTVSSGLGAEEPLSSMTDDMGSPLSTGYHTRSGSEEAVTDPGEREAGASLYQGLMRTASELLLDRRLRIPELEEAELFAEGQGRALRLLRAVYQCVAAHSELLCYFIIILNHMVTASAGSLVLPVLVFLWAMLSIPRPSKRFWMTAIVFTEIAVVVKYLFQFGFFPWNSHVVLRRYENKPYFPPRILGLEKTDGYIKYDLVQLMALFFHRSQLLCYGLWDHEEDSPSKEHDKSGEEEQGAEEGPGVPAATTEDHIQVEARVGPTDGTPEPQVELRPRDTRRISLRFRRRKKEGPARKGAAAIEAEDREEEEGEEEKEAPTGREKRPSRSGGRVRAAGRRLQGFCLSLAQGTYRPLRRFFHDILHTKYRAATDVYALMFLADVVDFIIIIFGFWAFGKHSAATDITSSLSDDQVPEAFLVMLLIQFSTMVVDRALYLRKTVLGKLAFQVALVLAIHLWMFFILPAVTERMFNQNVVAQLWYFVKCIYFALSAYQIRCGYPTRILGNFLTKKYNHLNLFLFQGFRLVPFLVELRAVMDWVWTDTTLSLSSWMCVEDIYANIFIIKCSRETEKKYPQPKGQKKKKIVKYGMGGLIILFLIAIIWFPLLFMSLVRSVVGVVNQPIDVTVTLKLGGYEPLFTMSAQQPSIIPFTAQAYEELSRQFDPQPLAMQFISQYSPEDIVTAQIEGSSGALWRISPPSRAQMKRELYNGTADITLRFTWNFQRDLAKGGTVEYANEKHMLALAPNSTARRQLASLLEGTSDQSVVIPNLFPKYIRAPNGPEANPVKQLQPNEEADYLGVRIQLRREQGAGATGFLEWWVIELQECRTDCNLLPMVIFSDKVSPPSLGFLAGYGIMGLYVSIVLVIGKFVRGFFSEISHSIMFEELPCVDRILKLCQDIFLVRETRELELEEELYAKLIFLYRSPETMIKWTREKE
# Method: To study the calcium influx evoked by native Piezo1 Rs expressed in microglia cells the present inventors used short Yoda1 applications (2 s, 50 μM if not otherwise specified). For this purpose, human IPSO derived microglia cells and SV-40 (immortalized human microglia) cells were seeded on 7 mm cover slips 1 day prior to the imaging experiment. Cells were loaded with the calcium-sensitive fluorescent dye Fluo-4AM (5 μM) for 30 min at 37° C. Followed by wash-incubation for 15 min in Ab 20 μM, 50 μM GdCI and basic solution (BS) as a control at 37° C. The basic solution containing the following (BS, in mM): 2.5 KCl, 152 NaCl, 10 glucose, 2 CaCl2, and 10 HEPES at pH 7.4. Fluorescence was visualized using monochromatic light source (TILL Photonics GmbH) using Ex/Im 494/[…] and a CCD camera (SensiCam). Chemicals were applied using a fast perfusion system (RSC-200, BioLogic Science). To quantify the difference in the amplitude of calcium transients, the ratio values were normalized by subtracting a baseline and further divided by the amplitude of the calcium transient to the 2 sec application of the ionomycin. Data were pre-analyzed offline using the FEI offline analysis (TILL Photonics), and further analysis was automatized using MatLab. Quantitative data were expressed as means±SEM unless otherwise stated. Number of experiments is indicated by n. Significance assessed with the ANOVA test or Mann-Whitney t test for non-parametric data. Statistically significant differences were set at*p<0.05 and **p<0.01.
# Differentiation of microglia. Differentiation of microglia was carried out as previously described with minor modifications (Abud et al., 2017). Shortly, on DO, iPSCs were dissociated to single cells with 0.5 mM EDTA or Accutase and were replated at a density of 6-,000-16,000 cells/cm2 on Matrigel in E8, 0.5% penicillin/streptomycin (P/S, 50 IU/50 […]), 5 ng/ml BMP4, 25 ng/ml activin a (both from Peprotech or Miltenyi Biotec), 1 μM CHIR 99021 (Axon or Stem Cell Technologies) and 10 μM Y-27632 to induce mesodermal differentiation. […]
smiles,measurement,setting,value
Clc1cccc(Cl)c1CSc1nnc(-c2cnccn2)s1 [Yoda1],branch points of neurites,[1],more branching points
same,neurite length,[1],extended neurite length
same,"Ca2+ transients evoked by Yoda1 short (2 s) application, amplitude normalized to ionomycin",[2],1.15±0.36

# — patent US20220265646A1, “PIEZO AGONISTS FOR PREVENTING OR REVERTING ABNORMAL AMYLOID DEPOSITION” (ITÄ-SUOMEN YLIOPISTO, priority 2019, published 2022)
